# From PubChem BioAssay (NCI)
#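 Tested at 5 concentrations; 48 h exposure; 96-well plates; endpoints linearly interpolated, else capped at highest concentration. GI50 marks 50% less growth. TGI marks complete inhibition of growth.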
# Assays:
# Assay in all cases: NCI anticancer screen, dose series, 48 h
# UACC-257 melanoma = test system: UACC-257 melanoma
# 786-0 renal = test system: 786-0 renal
# M14 melanoma = test system: M14 melanoma
# HCT-15 colon = test system: HCT-15 colon
# T-47D breast = test system: T-47D breast
# SK-MEL-2 melanoma = test system: SK-MEL-2 melanoma
# OVCAR-3 ovarian = test system: OVCAR-3 ovarian
# SNB-19 CNS = test system: SNB-19 CNS
# ACHN renal = test system: ACHN renal
# SR leukemia = test system: SR leukemia
Compound,TGI (UACC-257 melanoma),TGI (786-0 renal),TGI (M14 melanoma),TGI (HCT-15 colon),TGI (T-47D breast),TGI (SK-MEL-2 melanoma),TGI (OVCAR-3 ovarian),TGI (SNB-19 CNS),TGI (ACHN renal),TGI (SR leukemia),GI50 (UACC-257 melanoma),GI50 (786-0 renal),GI50 (M14 melanoma),GI50 (HCT-15 colon),GI50 (T-47D breast),GI50 (SK-MEL-2 melanoma),GI50 (OVCAR-3 ovarian),GI50 (SNB-19 CNS),GI50 (ACHN renal),GI50 (SR leukemia)
COc1ccc2c3c1OC1C4(CCC5C(C2)N(CC2CC2)CCC351)OCCO4 (stereo not given),> 100 µM,> 100 µM,> 100 µM,> 100 µM,> 100 µM,> 100 µM,> 100 µM,> 100 µM,> 100 µM,> 100 µM,–,–,–,–,–,–,–,–,–,–
COc1cc(NC(=O)c2cc3ccccc3cc2O)c(OC)cc1Cl,5.55 µM,9.18 µM,> 100 µM,8.4 µM,6.15 µM,6.95 µM,4.1 µM,8.21 µM,5.23 µM,14.7 µM,2.05 µM,2.86 µM,2.74 µM,1.95 µM,1.8 µM,2.74 µM,1.41 µM,2.53 µM,1.81 µM,2.02 µM
CCN(CC)CCC(CNc1c(C)cnc2cc(Cl)ccc12)c1ccc(Cl)c(Cl)c1 (stereo not given),3.93 µM,5.74 µM,3.63 µM,10.8 µM,7.08 µM,7.73 µM,21.1 µM,18 µM,17.5 µM,5.44 µM,2.08 µM,2.37 µM,1.82 µM,2.23 µM,2.22 µM,2.67 µM,6.81 µM,4.79 µM,4.51 µM,1.93 µM
